Assay: molar heat capacity at constant pressure; mn = molality of the nth substance listed, in mol/kg
Settings: 100 kPa, Liquid, Large sample (1 g) DSC

[Cl-].[Na+] [sodium chloride] + O
molar heat capacity at constant pressure [J/K/mol]
Settings | m1 = 0.2038 | m1 = 0.3971 | m1 = 1.032
278.15 K | 75.59 | 75.32 | 74.79
283.15 K | 75.42 | 75.21 | 74.42
288.15 K | 75.27 | 75.07 | 74.37
293.15 K | 75.25 | 74.95 | 74.28
298.15 K | 75.23 | 74.91 | 74.26
303.15 K | 75.22 | 74.9 | 74.22
308.15 K | 75.2 | 74.87 | 74.21
313.15 K | 75.18 | 74.87 | 74.2
318.15 K | 75.19 | 74.88 | 74.21
323.15 K | 75.2 | 74.96 | 74.26
328.15 K | 75.21 | 74.99 | 74.27
333.15 K | 75.25 | 75.03 | 74.28
338.15 K | 75.27 | 75.11 | 74.32
343.15 K | 75.38 | 75.21 | 74.34
348.15 K | 75.47 | 75.26 | 74.45

Source: the NIST ThermoML archive (doi:10.1016/j.jct.2018.10.027)
